Tests used:
786-O cells [1] = assay: 786-O experimental tumors in mice, anti-VEGFXXX/NF, bevacizumab or anti-KLH treatment (FIG. 12D-J); assay type: in vivo; settings: 786-O tumors
Protocol: (E) The weight of 786-O tumors at the end of the experiment. (F) Quantification of Ki67 positive cells in 786-0 tumors. […] (G) Number of mature (CD31+, a-SMA+) vessels in the different tumor sections.
Plasma levels of VEGFXXX/NFand VEGF are increased in the VEGF bevacizumab-treated group. […] FIG. 13. A-D) The levels of VEGF and VEGF222/NF were evaluated in the plasma (just before sunitinib treatment) of 47 metastatic ccRCC patients. The third quartile was used as the cut-off to determine patients' groups, respectively 4500 […] for VEGF and VEGF222/NF. The plasma levels of VEGF (A and C) or VEGF222/NF (B and D) were correlated to PFS under first-line sunitinib treatment (A and B) or with OS (C and D). Kaplan-Meier method was used to produce survival curves and analyzes of censored data were performed using Cox models. Statistical significance (p values) is indicated.
Tumor sections (5-μm cryostat sections) were fixed in 4% paraformaldehyde for twenty minutes at room temperature and blocked in 1% donkey serum in Tris-buffered saline (TBS) for two hours. […] Preparations were mounted and analyzed with a Leica microscope (Leica DMI4000B) and counted at a 10× magnification. Results are expressed as the number of vessels per mm^2 of sections.

786-O cells [2] = assay: 786-O experimental RCC tumors in NMRI mice, antibody treatment (FIG. 10); assay type: in vivo; settings: intraperitoneal once a week for 6 weeks, 5 mg/kg
Source text: FIG. 10. VEGF222/NF inhibition delays tumor growth of experimental RCC. 3M of 786-O cells were subcutaneously grafted in the left flank of NMRI mice. […] Tumor volumes were monitored with a caliper for 50 days. ***P<0.001, ****P<0.0001 (Anova Test).
For generating control or polyclonal anti-VEGF222/NF antibodies, 6 weeks BALB/cJRj mice (n=10) were immunized either with KLH carrier protein or with specific peptides SEQ 1 and SEQ2 coupled to KLH as previously described (Guyot et al., 2017, Targeting the pro-angiogenic forms of VEGF or inhibiting their expression as anti-cancer strategies. Oncotarget 8, 9174-9188) IgG were purified of Protein G Sepharose column. All animal studies were approved in advance by the local animal care committee (Veterinary service and direction of sanitary and social action of Monaco, Dr H. Raps.)

For bevacizumab, the “number of lymphatic vessels (LYVE1+) in tumors” value (786-O cells [1]) was “stimulated their development”, the “size of tumors versus control group” value (786-O cells [1]) was “equivalent to those of the control group” and the “tumor growth of 786-O experimental tumors” value (786-O cells [2]) was “did not”.

Source: patent US20250346642A1, “NEW SPLICE VARIANT ISOFORM OF VEGF” (CENTRE NATIONAL DE LA RECHERCHE SCIENTIFIQUE (CNRS), priority 2020, published 2025)
